Experimental data: PubChem BioAssay AID179 (DTP/NCI, 2004)
Active and inactive are the calls of the source.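 The calls were made as follows: active = compounds giving half or more protection of infected cells from virus-caused growth loss, again on retest; inactive = the rest.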

System: CEM cells HIV-1 protection, formazan growth assay
Test: NCI AIDS Antiviral Assay
Details: for IC50: measured here: growth of uninfected CEM cells
In short: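 Protection of CEM cells against HIV-1 measured as cell growth via soluble formazan read-out, with five concentrations tested on both infected and uninfected cells; failure to protect may reflect toxicity.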

Compound	EC50 [µM]	IC50 [µM]	outcome
O=C1N=C(SC(SC2=NC(=O)C3(NN2)c2ccccc2-c2ccccc23)=C(SC2=NC(=O)C3(NN2)c2ccccc2-c2ccccc23)SC2=NC(=O)C3(NN2)c2ccccc2-c2ccccc23)NNC12c1ccccc1-c1ccccc12	> 91.2	42.7	
Cc1ccc(/C=C2\CCOC2=O)cc1	> 138	> 138	
Cn1c2c(c3ccccc31)C1CCCCC1C1C(=O)NC(=O)C21 (stereo not given)			inactive
CCOC(=O)/C(=C/c1ccco1)P(=O)(OCC)OCC	> 832	490	
Cc1cc(N=Nc2ccc(-c3ccc(N=Nc4ccc(O)c(C(=O)O)c4)cc3)cc2)c(C)cc1N	> 100	41.7	
COC(=O)C(=O)C(C(=O)C(=O)Nc1ccccc1C(N)=O)c1nc2ccc(Cl)cc2[nH]c1=O (stereo not given)	> 75.9	> 75.9	
NC(=O)c1n[nH]n(-c2ccccc2)c1=O	> 200	> 200	
Cc1cc(-c2ccc(N=Nc3c(S(=O)(=O)O)cc4cc(S(=O)(=O)O)cc(N)c4c3O)c(C)c2)ccc1N=Nc1c(S(=O)(=O)O)cc2cc(S(=O)(=O)O)cc(N)c2c1O	34.7	132	
CCc1cccc(C)c1NC(=O)C(=O)Cc1nc2ccccc2o1	> 22.4	> 22.4	
C=C1OC(c2ccccc2NC)=NC12CCCCC2	> 200	115	
O=C(N/N=C\c1cccnc1)c1ccncc1	> 200	> 200	
CC(C)NS(=O)(=O)c1ncnc2nc[nH]c12			inactive
CC(NO)/C(=N/O)c1ccco1 (stereo not given)	> 200	> 200	
CC(CCC(C)OS(=O)(=O)c1ccc(F)cc1)OS(=O)(=O)c1ccc(F)cc1 (stereo not given)			inactive
COC(=O)C(=O)CC(=O)CCn1[nH]c(=O)c(Cl)c(Cl)c1=O	> 389	295	
Nc1nc(SSc2nc(N)nc3c2ncn3C2OC(CO)C(O)C2O)c2ncn(C3OC(CO)C(O)C3O)c2n1 (stereo not given)	> 20	0.339	
Cc1cc(=O)oc2cc(OCc3nc4ccccc4c(=O)o3)ccc12			inactive
CCOP(C)(=O)C(N)Cc1ccc(OC)c(OC)c1 (stereo not given)	> 200	> 200	

Compound	EC50 [µM]	IC50 [µM]	outcome
COc1cc(C2C3=C(COC3=O)Oc3cc4c(cc32)OCO4)cc(OC)c1O (stereo not given)	> 2	0.0562	
N#CC(C#N)=C1SCC(=O)CS1			inactive
CC1(C)OC2C(=O)O[C@H](CO)C2O1 (stereo not given in full)	> 200	> 200	
O=C1CSC(c2ccc(Cl)cc2)N1c1ccc(-c2ccc(-n3c(-c4ccccc4)nc4ccccc4c3=O)cc2)cc1 (stereo not given)	> 200	47.9	
N=c1c2ccccc2nc2oc3ccccc3n12	> 200	> 200	
O=C(O)CSc1c([N+](=O)[O-])cc(C(F)(F)F)cc1[N+](=O)[O-]	> 200	43.7	
N#Cc1ccnc(C(=O)N2CCCC2C(=O)O)c1 (stereo not given)	> 200	> 200	
CC(=O)OCC1OC(n2c(C)c(C)c(C)c(C#N)c2=S)C(OC(C)=O)C(OC(C)=O)C1OC(C)=O (stereo not given)	> 200	> 200	
CCC[CH2][Sn]([CH2]CCC)([O]N(C)C(=O)c1ccc(Br)cc1)[O]N(C)C(=O)c1ccc(Br)cc1	> 10.5	1.78	
c1cc(-c2cnc(-c3ccc4c(c3)CCCO4)o2)ccn1	> 200	50.1	
CCCCCCCCCCCCCc1nn[nH]n1	> 102	> 100	
Cc1cn(C2CC(Sc3cn[nH]n3)C(CO)O2)c(=O)[nH]c1=O (stereo not given)	> 380	75.9	
O=C1OC(=O)c2cnccc21			inactive
COC(=O)C(NC(=O)CSc1nnc(COc2ccc(Cl)cc2)n1-c1ccccc1)C(C)C (stereo not given)	> 200	12	
Cc1ccc(NC(=O)/C(Cc2cc(=O)oc3cc(O)ccc23)=N\NC(=O)C[N+](C)(C)C)cc1C	> 186	> 186	
O=C1NC(=O)C(=Cc2ccc(Cl)cc2)C(=O)N1	> 75.9	> 75.9	inactive
COc1ccc(/C(=N/Nc2nc3ccccc3[nH]2)C(=O)O)cc1	> 200	> 200	
